Results reported in patent US20200188477A1, “A MEDICAMENT FOR THE TREATMENT OF DISEASES BY BIOFILM FORMING MICROORGANISMS” (priority 2017, published 2020).
≈ marks a conversion by molar mass, not a printed value. Where two headings read alike, the source gives them in different places.

Tested on: M. smegmatis
Assay: microbe, parasite or virus in culture
Assay type: cell-based, Mycobacterium smegmatis
Conditions: for MIC: Mycolicibacterium smegmatis

| SMILES | MIC (absence of acarbose, PpiB (Tet+), read-out: MIC) [µg/mL] | MIC (absence of acarbose, VC (Tet+), read-out: MIC) [µg/mL] | MIC (absence of cyclosporine A, PpiB (tet+), read-out: minimum inhibitory concentration (MIC)) [µg/mL] | MIC (absence of cyclosporine A, […], read-out: minimum inhibitory concentration (MIC)) [µg/mL] | MIC (presence of acarbose, PpiB (Tet+), read-out: MIC) [µg/mL] | MIC (presence of cyclosporine A, PpiB (tet+), read-out: MIC) [µg/mL] | MIC (presence of cyclosporine A, […], read-out: MIC) [µg/mL] | concentration that inhibits culture (absence of cyclosporine A, […]) [µg/mL] | inhibitory effect on culture (presence of cyclosporine A, […]) |
| --- | --- | --- | --- | --- | --- | --- | --- | --- | --- |
| NNC(=O)c1ccncc1 [isoniazide] | 64 (≈ 467 µM) | 16 (≈ 117 µM) | 64 (≈ 467 µM) | 16 (≈ 117 µM) | 32 | 32 | 8 |  |  |
| CC[C@@H](CO)NCCN[C@@H](CC)CO [ethambutol] |  |  |  |  |  |  |  | 4 | enhanced |
